Data from US20250197382A1, “KIF18A INHIBITOR” (WIGEN BIOMEDICINE TECHNOLOGY (SHANGHAI) CO., LTD., priority 2022, published 2025).
pIC50: −log10 of the molar value.

target: Recombinant human KIF18A (1-467His-tagged) protein (Homo sapiens (Human), UniProt Q8NI77); assay: KIF18A enzyme assay (microtubule-stimulated ATPase activity, ADP-Glo); assay type: biochemical; conditions: 30 nM KIF18A, ATP 75 μM, read-out: inhibitory activity against KIF18A IC50
Protocol: Biological Example 1. Assay for In Vitro Inhibition of Enzymatic Activity of KIF18A by Compounds of the Present Invention
KIF18A enzyme assay: The enzymatic activity of KIF18A after treatment with the compounds was measured by an assay of microtubule-stimulated ATPase activity. ADP generated from the ATPase reaction was measured in this assay. The compounds were serially diluted 2-fold in DMSO over a range of 22 concentration points. Recombinant human KIF18A (1-467His-tagged) protein was expressed using a baculovirus system. Concentrations of KIF18A protein, microtubules, and ATP in the reaction were optimized for a standardized homogenous enzyme assay using an ADP-Glo kinase/ATPase assay kit. A reaction buffer [(15 mM Tris, pH 7.5), 10 mM MgCl2, 0.01% PluronicF-68, 1 μM paclitaxel, and 30 μg/mL pig microtubules] was prepared. The compounds and KIF18A protein (30 nM) were added to the prepared reaction buffer, and the reaction mixture was incubated at room temperature for 15 min, followed by addition of ATP (Km, 75 μM). The resulting reaction mixture was incubated at room temperature for another 15 min. 5 μL of ADP-Glo reagent and 2.5 μL of the reaction mixture were mixed and the resulting mixture was incubated at room temperature for 40 min. 10 μL of ADP-Glo detection reagent was added and the mixture was incubated at room temperature for 40 min. Luminescence was measured using a microplate reader and compared with that of the DMSO group, and then the inhibition percentages and IC50 values of the compounds were calculated.

Recombinant human KIF18A (1-467His-tagged) protein, sequence (Q8NI77 1-467): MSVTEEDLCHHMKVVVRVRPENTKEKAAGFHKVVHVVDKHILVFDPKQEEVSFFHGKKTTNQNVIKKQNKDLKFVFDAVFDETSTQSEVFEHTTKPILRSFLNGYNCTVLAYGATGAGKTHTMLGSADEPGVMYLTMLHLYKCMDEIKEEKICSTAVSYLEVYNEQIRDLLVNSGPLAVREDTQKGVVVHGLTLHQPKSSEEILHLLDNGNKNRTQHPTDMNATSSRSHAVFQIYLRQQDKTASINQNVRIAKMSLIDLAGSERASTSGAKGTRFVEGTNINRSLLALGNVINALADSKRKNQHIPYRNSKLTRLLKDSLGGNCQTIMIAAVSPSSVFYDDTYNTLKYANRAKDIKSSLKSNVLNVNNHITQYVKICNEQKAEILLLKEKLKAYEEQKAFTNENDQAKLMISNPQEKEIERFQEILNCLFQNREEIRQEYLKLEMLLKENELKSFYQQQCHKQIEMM
Recombinant human KIF18A (1-467His-tagged) protein, sequence (P02550 whole entry partner): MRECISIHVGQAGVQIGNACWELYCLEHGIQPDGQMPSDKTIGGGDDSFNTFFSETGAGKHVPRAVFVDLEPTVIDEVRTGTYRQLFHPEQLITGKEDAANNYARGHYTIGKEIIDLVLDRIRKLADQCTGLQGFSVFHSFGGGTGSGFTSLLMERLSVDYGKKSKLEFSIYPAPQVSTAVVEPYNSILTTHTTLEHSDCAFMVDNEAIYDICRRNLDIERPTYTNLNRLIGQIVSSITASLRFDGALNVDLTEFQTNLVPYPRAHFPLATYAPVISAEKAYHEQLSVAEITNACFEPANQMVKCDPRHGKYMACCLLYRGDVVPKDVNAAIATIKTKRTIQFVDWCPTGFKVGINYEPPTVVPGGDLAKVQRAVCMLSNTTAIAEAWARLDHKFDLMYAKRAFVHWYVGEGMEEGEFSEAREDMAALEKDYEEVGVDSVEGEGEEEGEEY
Recombinant human KIF18A (1-467His-tagged) protein, sequence (P02554 whole entry partner): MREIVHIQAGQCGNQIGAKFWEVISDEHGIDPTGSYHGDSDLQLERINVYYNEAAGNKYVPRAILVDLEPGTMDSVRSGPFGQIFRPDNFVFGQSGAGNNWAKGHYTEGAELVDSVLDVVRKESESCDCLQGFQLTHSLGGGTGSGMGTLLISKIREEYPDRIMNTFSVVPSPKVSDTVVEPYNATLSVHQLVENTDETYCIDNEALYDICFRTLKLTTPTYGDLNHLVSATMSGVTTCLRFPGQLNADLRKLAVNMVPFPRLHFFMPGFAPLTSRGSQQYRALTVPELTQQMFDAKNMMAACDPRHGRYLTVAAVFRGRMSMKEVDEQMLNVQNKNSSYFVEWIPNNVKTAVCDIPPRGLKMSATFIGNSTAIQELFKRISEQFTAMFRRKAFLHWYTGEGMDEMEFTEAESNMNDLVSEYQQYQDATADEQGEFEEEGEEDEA

Row | Structure (SMILES) | pIC50
1 | C[C@H]1CN(c2nc(C(=O)Nc3ccc(S(=O)(=O)NCCO)cc3N3CCC4(CC3)CC4)cc3c2N(C)CC3)CCO1 [Compound 371] | ≥ 7.00
2 | C[C@@H](CO)S(=O)(=O)Nc1ccc(C(=O)Nc2cc(N3CCC(F)(F)CC3)c3c(ccn3C)c2)c(N2CCC3(CC2)CC3)c1 [Compound 397] | ≥ 7.00
3 | C[C@@H]1CN(c2cc(NC(=O)c3ccc(NS(=O)(=O)[C@H](C)CO)cc3N3CCC4(CC3)CC4)cc3c2N(C)CC3)CCO1 [Compound 272] | ≥ 7.00
4 | O=C(Nc1cc2ccoc2c(OC2CCC2)n1)c1ccc(NS(=O)(=O)CCO)cc1N1CCC2(CC1)CC2 [Compound 199] | ≥ 7.00
5 | O=C(Nc1cc(OC2CCC2)c2occc2c1)c1ccc(NS(=O)(=O)CCO)cc1N1CCC2(CC1)CC2 [Compound 135] | ≥ 7.00
6 | C[C@@H]1CN(c2cc(C(=O)Nc3ccc(S(=O)(=O)NCCO)cc3N3CCC4(CC3)CC4)cc3c2N(C)CC3)CCO1 [Compound 306] | ≥ 7.00
7 | C[C@H](CO)S(=O)(=O)Nc1ccc(C(=O)Nc2cc3c(c(N4CCC(F)(F)CC4)c2)N(C)CC3)c(N2CCC3(CC2)CC3)c1 [Compound 270] | ≥ 7.00
8 | CN1CCc2cc(C(=O)Nc3ccc(S(=O)(=O)NCCO)cc3N3CCC4(CC3)CC4)nc(N3CCC(C)(F)C3)c21 (stereo not shown) [Compound 376] | ≥ 7.00
9 | Cn1ccc2cc(NC(=O)c3ccc(NS(=O)(=O)CCO)cc3N3CCC4(CC3)CC4)nc(OCCC(F)(F)F)c21 [Compound 453] | ≥ 7.00
10 | O=C(Nc1ccc(S(=O)(=O)NCCO)cc1N1CCC2(CC1)CC2)c1cc2c(c(OC3CCC3)n1)OCC2 [Compound 119] | ≥ 7.00
11 | CN1CCc2cc(C(=O)Nc3ccc(NS(=O)(=O)CCO)cc3N3CCC4(CC3)CC4)cc(OC3CCC3)c21 [Compound 295] | ≥ 7.00
12 | C[C@H](CO)S(=O)(=O)Nc1ccc(C(=O)Nc2cc3ccoc3c(N3CCC(F)(F)CC3)n2)c(N2CCC3(CC2)CC3)c1 [Compound 206] | ≥ 7.00
13 | CC1(F)CCN(c2nc(NC(=O)c3ccc(S(=O)(=O)NCCO)cc3N3CCC4(CC3)CC4)cc3c2OCC3)C1 (stereo not shown) [Compound 88] | ≥ 7.00
14 | C[C@@H]1CN(c2nc(C(=O)Nc3ccc(NS(=O)(=O)CCO)cc3N3CCC4(CC3)CC4)cc3ccoc23)CCO1 [Compound 226] | ≥ 7.00
15 | C[C@H](CO)NS(=O)(=O)c1ccc(C(=O)Nc2cc(N3CCC(F)(F)CC3)c3c(ccn3C)c2)c(N2CCC3(CC2)CC3)c1 [Compound 414] | ≥ 7.00

The next lines start with the values.

Row | pIC50 | Structure (SMILES)
16 | ≥ 7.00 | O=C(Nc1cc(N2CCC3(CC3)C2)c2occc2c1)c1ccc(NS(=O)(=O)CCO)cc1N1CCC2(CC1)CC2 [Compound 134]
17 | ≥ 7.00 | Cn1ccc2cc(C(=O)Nc3ccc(S(=O)(=O)NCCO)cc3N3CCC4(CC3)CC4)cc(N3CCC4(CC4)C3)c21 [Compound 438]
18 | ≥ 7.00 | C[C@@H]1CN(c2cc(NC(=O)c3ccc(S(=O)(=O)N[C@@H](C)CO)cc3N3CCC4(CC3)CC4)cc3c2OCC3)CCO1 [Compound 31]
19 | ≥ 7.00 | C[C@H]1CN(c2cc(C(=O)Nc3ccc(NS(=O)(=O)CCO)cc3N3CCC4(CC3)CC4)cc3c2OCC3)CCO1 [Compound 35]
20 | ≥ 7.00 | O=C(Nc1ccc(S(=O)(=O)NCCO)cc1N1CCC2(CC1)CC2)c1cc(N2CCC3(CC3)C2)c2occc2c1 [Compound 182]
21 | ≥ 7.00 | C[C@@H](CO)S(=O)(=O)Nc1ccc(NC(=O)c2cc3c(c(N4CCC(F)(F)CC4)n2)N(C)CC3)c(N2CCC3(CC2)CC3)c1 [Compound 365]
22 | ≥ 7.00 | O=C(Nc1cc(OCCC(F)(F)F)c2occc2c1)c1ccc(NS(=O)(=O)CCO)cc1N1CCC2(CC1)CC2 [Compound 133]
23 | ≥ 7.00 | CC1(F)CCN(c2cc(NC(=O)c3ccc(NS(=O)(=O)CCO)cc3N3CCC4(CC3)CC4)cc3ccoc23)C1 (stereo not shown) [Compound 136]
24 | ≥ 7.00 | CN1CCc2cc(C(=O)Nc3ccc(S(=O)(=O)NCCO)cc3N3CCC4(CC3)CC4)nc(N3CCC(F)CC3)c21 [Compound 377]
25 | ≥ 7.00 | CN1CCc2cc(NC(=O)c3ccc(NS(=O)(=O)CCO)cc3N3CCC4(CC3)CC4)cc(OC3CCC3)c21 [Compound 263]
